Assay results reported in PubChem BioAssay (NCI).
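In this assay, cells in 96-well plates receive the compound at five concentrations for 48 hours. Endpoints are linearly interpolated between the surrounding concentrations. TGI marks complete inhibition of growth.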

Key:
Assay in all cases: inhibition of tumour cell growth, NCI panel, 48 h
HS 578T breast = tested on: HS 578T breast
M14 melanoma = tested on: M14 melanoma
SNB-19 CNS = tested on: SNB-19 CNS
TK-10 renal = tested on: TK-10 renal
SK-MEL-28 melanoma = tested on: SK-MEL-28 melanoma
RXF 393 renal = tested on: RXF 393 renal
HOP-92 NSCLC = tested on: HOP-92 NSCLC
MDA-MB-435 = tested on: MDA-MB-435
T-47D breast = tested on: T-47D breast
HCC-2998 colon = tested on: HCC-2998 colon
SN12C renal = tested on: SN12C renal
ACHN renal = tested on: ACHN renal
IGROV1 ovarian = tested on: IGROV1 ovarian
RPMI-8226 leukemia = tested on: RPMI-8226 leukemia
UO-31 renal = tested on: UO-31 renal

Compound	TGI (HS 578T breast) [µM]	TGI (M14 melanoma) [µM]	TGI (SNB-19 CNS) [µM]	TGI (TK-10 renal) [µM]	TGI (SK-MEL-28 melanoma) [µM]	TGI (RXF 393 renal) [µM]	TGI (HOP-92 NSCLC) [µM]	TGI (MDA-MB-435) [µM]	TGI (T-47D breast) [µM]	TGI (HCC-2998 colon) [µM]	TGI (SN12C renal) [µM]	TGI (ACHN renal) [µM]	TGI (IGROV1 ovarian) [µM]	TGI (RPMI-8226 leukemia) [µM]	TGI (UO-31 renal) [µM]
CC1(C#N)CC(C)(C)C(/C=C2/CC(C)(C)C(/C=C3/OC(=N)CC3(C)C)=N2)=N1 (configuration not stated)	58.9	85.8	> 100	> 100	> 100	44.5	39.9	63.9	61.8	93.3	95.9	58.9	46.3	64	
O=C(CC(c1ccccc1)N1CCCCC1)c1ccccc1 (configuration not stated)	70.5	42.3	36.1	27.3	32.4	33.6	32.7	27.4	37.6	15.6	32.6	30.7	29.1	5.23	36.8
CC(=O)N(C(=O)CC(=O)N/N=C\c1ccc(Br)c(N(CCC#N)CCC#N)c1)c1ccc(Cl)cc1	> 100	> 100	> 100	> 100	> 100	> 100	> 100	> 100	> 100	> 100	> 100	> 100	> 100	> 100	> 100
C=CCNC1=C2C[C@@H](C)C[C@@H](OC)[C@@H](OC(=O)CCCN)[C@H](C)/C=C(\C)[C@@H](OC(N)=O)[C@H](OC)/C=C\C=C(/C)C(=O)NC(=CC1=O)C2=O	49.5	28.7	32.2	33.4	41.9	42.2	29.3	45.2	> 67.2	32.9	44.2	38.9	30.1	46.9	34.2
COn1cc(C=O)c2ccccc21	> 100	> 100	> 100	> 93	> 100	> 100	> 100	34.9	> 100	53.7	> 100	> 100	> 100	> 100	> 100
COC(=O)C1=C(C)NC(C)=C(C(=O)OC)C1c1ccc(/[N+]([O-])=C/c2ccccc2)cc1	> 100	35.7	> 100	> 100	36.8	41.1	35.3	> 100	40.6	> 100	> 100	32.7	> 100	> 100	> 100
Cc1ccc(S(=O)(=O)C2=Cc3ccc(C(F)(F)F)cc3C2(O)c2cccc(C(F)(F)F)c2)cc1 (configuration not stated)	> 27.2	4.83	16.8	5.96	3.75	6.26	4.17	4.28	11	4.63	4.47	7.64	7.03	> 23	6.11
O=C(O)c1nc(-c2ccccn2)c(-c2ccccn2)nc1C(=O)O	> 72.6	3.59	19.1	15.3	11.1	9.71	26.9	30.8	24.1	3.45	24.6	7.35	21	> 100	8.15
CO[C@H]1[C@@H](O)[C@@H](C)O[C@@H](O[C@H]2CC[C@@]3(C)[C@H](CC[C@@H]4[C@@H]3CC[C@]3(C)[C@@H](C5=CC(=O)OC5)[C@@H](OC(C)=O)C[C@]43O)C2)[C@@H]1O	0.124	0.189	0.507	0.052	> 50	0.0523	0.577	0.407	0.435	0.824		0.0575	0.772	> 16.2	0.0686
CCN(CC)c1ccc2cc(-c3nnc(-c4ccccc4)o3)c(=O)oc2c1	> 100	> 100	> 80.9	> 62.6	> 100	> 52.5	> 100	> 100	> 71.4	> 46.3	> 100	> 100	> 80.8	> 100	> 100
N#CC(NNC(=O)Cc1ccccc1)c1ccccc1O (configuration not stated)	> 100	24.2	> 80.8	> 100	> 100	> 100	> 92.1	> 100	> 65.3	56.1	> 100	43.8	> 100	> 100	25.4
COc1ccc(CCNC2=CC(=O)c3ncccc3C2=O)cc1OC	5.32	2.69	7.27	> 86	2.69	15.2	35.8	0.924	24.7	4.68	3.59	19.8	7.63	> 43	13.1
CCOC(=O)C(N)CSC(=O)NC (configuration not stated)	782	275	600	566	440	337	341	98.4	773	644	213	510	481	214	602
CC(=O)c1sc2c(c1OC(=O)c1cccs1)c(=O)n(-c1ccccc1)c(=S)n2-c1ccccc1	22.3	10.6	44.8	55.4	15.6	18.6	22.1	20.8	> 100	> 100	15.1	11.1	35.4	20.3	
CN(Nc1cc(=O)[nH]c(=O)[nH]1)c1ccccc1	> 100	> 100	> 100	> 100	> 100	> 100	> 100	> 100	> 100	> 100	> 100	> 100	> 100	> 100	> 100
CC1(C)OCC2OC3(c4nc(C#N)c(N)o4)OC(C)(C)OC3C2O1 (configuration not stated)	> 100	> 100	> 100	> 100	> 100	> 100	> 100	> 100	> 100	> 100	> 100	> 100	> 100	> 100	> 100
N#Cc1sc2nc(/C=C3/C=CC=CC3=O)c(O)n2c1N	> 100	> 100	> 100	> 100	> 100	> 100	> 100	> 100	> 100	> 100	> 100	> 100	> 100	81.2	> 100
N#CSc1nc[nH]c1C(N)=O	> 100	> 100	> 100	> 100	> 100	> 100	> 100	> 100	> 100	> 100	90	> 100	> 100	44.7	> 100
O=C(c1ccccc1)c1c(-c2ccccc2)[nH]n(-c2ccc([N+](=O)[O-])cc2)c(=O)c1=O	> 100	> 100	> 100	> 100	> 100	> 100	50.9	> 100	> 100	> 100	> 100	> 100	> 100	> 100	> 100
O=C(NCCCNC(=O)c1ccc2c(O)c(O)ccc2c1)c1ccc2c(O)c(O)ccc2c1	56.1	78.8	> 70.9	> 85.6	> 100	> 70	> 100	36.1	> 100	> 100	52.2	55.9	40.8	> 100	65.7
COc1cc(/C=C2\C[C@H]3[C@@H]4CC=C5C[C@@H](O)CC[C@]5(C)[C@H]4CC[C@]3(C)C2=O)cc(OC)c1OC	> 100	81.8	> 100	> 100	> 100	58	> 100	> 100	64.2	98.1	> 100	> 100	> 100	45.4	> 100
